Laboratory results taken from patent publication US20090181972A1, “Novel Inhibitors of Cysteine Proteases, the Pharmaceutical Compositions Thereof and their Therapeutic Applications” (priority 2005, published 2009).

Legend:
USP5 = target: T1, USP5 (Homo sapiens, UniProt P45974); test: USP5 activity assay; format: biochemical; conditions: 400 nM Ub-AMC, 300 pM enzyme; pre-incubated 30 minutes at 25° C., 60 minutes at 37° C.; sigmoidal fit; read-out: USP 5
T1 sequence (P45974 1-858): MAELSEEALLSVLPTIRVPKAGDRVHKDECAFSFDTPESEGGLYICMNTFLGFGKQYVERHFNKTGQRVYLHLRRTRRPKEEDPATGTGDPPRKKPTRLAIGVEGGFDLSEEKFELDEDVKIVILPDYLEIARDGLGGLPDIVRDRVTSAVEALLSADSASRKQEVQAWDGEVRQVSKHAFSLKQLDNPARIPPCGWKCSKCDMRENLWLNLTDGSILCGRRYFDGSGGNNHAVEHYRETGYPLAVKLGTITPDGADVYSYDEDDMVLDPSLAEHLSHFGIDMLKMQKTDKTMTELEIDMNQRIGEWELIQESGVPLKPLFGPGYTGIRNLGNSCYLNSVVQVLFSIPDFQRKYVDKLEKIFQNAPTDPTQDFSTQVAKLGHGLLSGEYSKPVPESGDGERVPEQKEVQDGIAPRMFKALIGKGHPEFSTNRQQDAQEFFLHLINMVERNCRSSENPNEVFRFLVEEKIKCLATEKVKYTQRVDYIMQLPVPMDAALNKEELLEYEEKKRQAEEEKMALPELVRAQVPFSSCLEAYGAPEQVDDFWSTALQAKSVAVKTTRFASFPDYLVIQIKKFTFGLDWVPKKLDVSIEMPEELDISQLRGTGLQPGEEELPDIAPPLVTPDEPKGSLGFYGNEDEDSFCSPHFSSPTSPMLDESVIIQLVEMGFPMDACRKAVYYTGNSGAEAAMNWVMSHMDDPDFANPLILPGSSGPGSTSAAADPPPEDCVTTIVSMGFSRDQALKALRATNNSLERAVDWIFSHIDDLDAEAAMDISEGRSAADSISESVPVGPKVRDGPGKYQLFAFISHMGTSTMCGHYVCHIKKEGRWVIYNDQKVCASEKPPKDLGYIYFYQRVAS
Protocol: USP5 was diluted in USP buffer (50 mM Tris HCl; 0.5 mM EDTA; 5 mM DTT; 0.01% Triton X-100; Bovine Serum Albumin 0.05 mg.ml^−1 pH 7.6). Compounds stocks (100 mM) were stored at -20° C. in DMSO.
(§1) Reactions were performed as duplicates in Black LJL 96 well plates (HE microplates; Molecular Devices; 20 μl final reaction volume). The substrate concentration for USP5 was 400 nM Ub-AMC (Boston Biochem). The concentrations of the enzyme (USP5) in specificity assays was 300 pM. The concentrations were determined in order to perform specificity assays under initial velocities at fixed substrate concentration. Compounds were pre-incubated with enzymes for 30 minutes at 25° C. Reactions were initiated by addition of substrate to the plates containing the enzymes (+/− compounds) diluted in assay buffer. Reactions were incubated for 60 minutes at 37° C. Reactions were stopped by adding acetic acid (100 mM final). Readings were performed on a Pherastar Fluorescent Reader (BMG). λ Emission 380 nm; λ Excitation=460 nm. Data (mean values +/− standard deviation) were analyzed as % of control (no compound) and plotted as percentage versus the Log of the compound concentration using GraphPad (Prism). Data were fitted to a sigmoidal model (variable slope).

[1] = test system: HCT116 colon cancer cells; test: HCT116 cell viability and proliferation assay (MTS); format: cell-based; conditions: Homo sapiens, HCT-116, 72 hours incubation, mean of three independent experiments, read-out: HCT116 GI50 D3
Protocol: HCT116 colon cancer cells were obtained from ATCC (American Type Culture Collection), and maintained in Mc Coy's 5A medium containing 10% FBS, 3 mM glutamine and 1% penicillin/streptomycin. Cells were incubated at 37° C. in a humidified atmosphere containing 5% CO2.
(§2) Cell viability was assayed using the MTS technique in 96-well culture plates (CellTiter 96® Aqueous Non-Radioactive Cell Proliferation Assay, Promega) according to the manufacturer's instructions. MTS (3-(4,5-dimethyl-thiazol-2-yl)-5-(3-carboxymethoxyphenyl)-2-(4-sulfophenyl)-2H-tetra-zolium) is a MTT-derived tetrazolium that is reduced in metabolically active cells into a soluble, cell-permeant formazan. The amount of formazan, detected by its absorbance at 492 nm is proportional to the number of living, metabolically active cells.
(§3) 10^3 HCT116 cells were seeded per well. 24 hours later, the medium was changed and the cells treated in triplicate with the following concentrations of each compound: 10 μM-3.33 μM-1.11 μM-370 nM-123 nM-41 nM-14 nM and 5 nM. The compounds were diluted in 100% DMSO, whose final concentration on cells was kept at 0.5%.
(§4) Cells were incubated with the compounds for 72 hours, and their viability then assayed by the addition of MTS for 2 hours. Absorbance at 492 nm was measured directly from the 96-well culture plates. G150 (Growth Inhibition 50) concentrations for each compound were calculated using a sigmoidal variable slope fit (Prism 4.0, Graphpad Softwares). Values represent mean of three independent experiments.

[2] = test system: PC-3 prostate cancer cells; test: PC3 cell viability and proliferation assay (MTS); format: cell-based; conditions: Homo sapiens, PC-3, 72 hours incubation, mean of three independent experiments, read-out: PC3 GI50 D3
Protocol: PC-3 prostate cancer cells were obtained from ATCC, and maintained in F-12K medium containing 7% FBS and 1% penicillin/streptomycin. Cells were incubated at 37° C. in a humidified atmosphere containing 5% CO2.
as §2, with “(3-(4,5-dimethyl-thiazol-2-yl)-5-(3-carboxymethoxyphenyl)-2-(4-sulfophenyl)-2H-tetrazolium)” for “(3-(4,5-dimethyl-thiazol-2-yl)-5-(3-carboxymethoxyphenyl)-2-(4-sulfophenyl)-2H-tetra-zolium)”
as §3, with “2×10^3 PC3” for “10^3 HCT116”
as §4, with “GI50” for “G150”

USP7 = target: T2, USP7 (Homo sapiens, UniProt Q93009); test: USP7 activity assay; format: biochemical; conditions: 400 nM Ub-AMC, 152 pM enzyme; pre-incubated 30 minutes at 25° C., 60 minutes at 37° C.; sigmoidal fit; read-out: USP 7
T2 construct: His tag (pFastBac-HT vector) (N); made in house; host or cells: Sf9 or High Five insect cells (baculovirus)
T2 sequence (Q93009 whole entry): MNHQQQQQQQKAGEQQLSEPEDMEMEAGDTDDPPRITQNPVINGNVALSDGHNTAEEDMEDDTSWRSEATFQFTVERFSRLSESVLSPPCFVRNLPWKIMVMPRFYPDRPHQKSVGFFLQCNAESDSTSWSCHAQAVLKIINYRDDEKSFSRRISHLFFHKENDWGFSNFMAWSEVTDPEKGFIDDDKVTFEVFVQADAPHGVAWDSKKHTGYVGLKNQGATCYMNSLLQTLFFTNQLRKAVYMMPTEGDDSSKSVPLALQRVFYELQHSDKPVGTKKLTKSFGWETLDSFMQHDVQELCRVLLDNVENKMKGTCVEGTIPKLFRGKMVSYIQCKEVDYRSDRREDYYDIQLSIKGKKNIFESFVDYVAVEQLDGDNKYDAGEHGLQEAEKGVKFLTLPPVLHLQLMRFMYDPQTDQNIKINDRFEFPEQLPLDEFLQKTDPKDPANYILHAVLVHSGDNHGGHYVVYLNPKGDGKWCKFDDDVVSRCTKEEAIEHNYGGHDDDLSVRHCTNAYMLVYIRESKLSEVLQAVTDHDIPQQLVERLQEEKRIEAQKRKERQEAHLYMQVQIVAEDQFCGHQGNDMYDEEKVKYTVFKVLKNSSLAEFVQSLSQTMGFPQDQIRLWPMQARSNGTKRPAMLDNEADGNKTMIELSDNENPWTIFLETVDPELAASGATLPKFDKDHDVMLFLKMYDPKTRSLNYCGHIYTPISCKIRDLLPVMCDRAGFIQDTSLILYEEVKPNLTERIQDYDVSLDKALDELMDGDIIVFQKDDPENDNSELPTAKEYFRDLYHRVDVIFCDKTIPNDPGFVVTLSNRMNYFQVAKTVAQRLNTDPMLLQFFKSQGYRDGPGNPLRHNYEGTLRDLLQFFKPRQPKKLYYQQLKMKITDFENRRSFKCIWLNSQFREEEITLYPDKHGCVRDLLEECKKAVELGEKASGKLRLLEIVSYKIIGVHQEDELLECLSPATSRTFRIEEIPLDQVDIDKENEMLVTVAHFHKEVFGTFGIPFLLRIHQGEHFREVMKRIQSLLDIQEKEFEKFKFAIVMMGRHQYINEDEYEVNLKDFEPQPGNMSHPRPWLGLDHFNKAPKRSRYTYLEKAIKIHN
Description: The cDNA encoding USP7 was obtained by PCR amplification from placenta mRNA. USP7 cDNA was subcloned by PCR into a baculovirus expression vector (pFastBac-HT; Invitrogen). A cDNA encoding a mutated USP7 was generated by mutagenic PCR. The corresponding protein encodes a cysteine to alanine substitution at residue 223. The sequences were ascertained by sequencing of the entire open reading frame. Bacmids encoding USP7 were generated following DH10bac transposition. The corresponding bacmids were transfected into insect cells (Sf9). Viruses were recovered from culture supernatant and amplified twice. Insect cells (Sf9 or High Five; lnvitrogen) were infected for 72 hours. Total cell lysates were harvested and lyzed in lysis buffer (Tris HCl 50 mM pH 7.6; 0.75 % NP40; 500 mM NaCl; 10% glycerol; 1 mM DTT; 10 mM imidazole; Protease Inhibitor Cocktail; AEBSF 20 μg.ml^−1; Aprotinin 10 μg.ml^−1). Proteins were affinity purified on metal affinity resins (Talon Metal affinity resin; BD Biosciences). Bound materials were extensively washed in wash buffer (50 mM Sodium Phosphate pH 7.0; 300 mM NaCl; 10 mM imidazole; 0.5% Triton X-100; 10% glycerol) and eluted from the resin in 250 mM imidazole-containing wash buffer. Proteins were dialyzed in dialysis buffer (Tris HCl pH 7.6 20 mM; NaCl 200 mM; DTT 1 mM; EDTA 1 mM; 10% Glycerol). Proteins purifications were analyzed on 4-12% NuPAGE (Invitrogen).
USP7 was diluted in USP buffer (50 mM Tris HCl; 0.5 mM EDTA; 5 mM DTT; 0.01 % Triton X-100; Bovine Serum Albumin 0.05 mg.ml^−1 pH 7.6). Compounds stocks (100 mM) were stored at −20° C. in DMSO. Compounds were tested at the following final concentrations: 100 μM; 33.3 μM; 11.1 μM; 3.7 μM; 1.23 μM; 412 nM; 137 nM; 45.7 nM; 15.2 nM; 5 nM.
as §1, with “USP7” for “USP5”, “Ub-AMC (Chem. Biol., 2003, 10, p. 837-846)” for “Ub-AMC”, “(USP7)” for “(USP5)”, “152” for “300”

Row | IC50 (USP5) | GI50 [1] | GI50 [2] | IC50 (USP7) | Compound
1 | 34.8 µM | – | – | – | O=C1c2ccccc2-c2nc3nnc(Cc4ccccc4)n3nc21 [Example 1k/A, 1-Benzyl-2,3,4,10,10a-pentaaza-cyclopenta[b]fluoren-9-one]
2 | – | 1.4 µM | 5.4 µM | – | CCc1nnc2nc3c(nn12)C(=O)c1ccccc1-3 [Example 1d/A, 1-Ethyl-2,3,4,10,10a-pentaaza-cyclopenta[b]fluoren-9-one]
3 | – | 0.065 µM | 0.238 µM | – | COCc1nnc2nc3c(nn12)-c1ccccc1C3=O [Example 1i/B, 3-Methoxymethyl-1,2,3a,4,10-pentaaza-cyclopenta[b]fluoren-9-one]
4 | – | 0.059 µM | 0.256 µM | – | CCc1nnc2nc3c(nn12)-c1ccccc1C3=O [Example 1d/B, 3-Ethyl-1,2,3a,4,10-pentaaza-cyclopenta[b]fluoren-9-one]
5 | – | 0.098 µM | 0.286 µM | – | Cc1nnc2nc3c(nn12)-c1ccc(Cl)cc1C3=O [Example 3/B, 7-Chloro-3-methyl-1,2,3a,4,10-pentaaza-cyclopenta[b]fluoren-9-one]
6 | – | 3.1 µM | 4.2 µM | > 100 µM | CCCc1nnc2nc3c(nn12)C(=O)c1ccccc1-3 [Example 1e/A, 1-Propyl-2,3,4,10,10a-pentaaza-cyclopenta[b]fluoren-9-one]
7 | – | 0.323 µM | 1.44 µM | – | O=C1c2ccccc2-c2nn3c(CO)nnc3nc21 [Example 1h/B, 3-Hydroxymethyl-1,2,3a,4,10-pentaaza-cyclopenta[b]fluoren-9-one]
8 | – | 8.5 µM | – | – | Nc1nnc2nc3c(nn12)C(=O)c1ccccc1-3 [Example 1c/A, 1-Amino-2,3,4,10,10a-pentaaza-cyclopenta[b]fluoren-9-one]
9 | – | 1.28 µM | 1.75 µM | > 100 µM | COCc1nnc2nc3c(nn12)C(=O)c1ccccc1-3 [Example 1i/A, 1-Methoxymethyl-2,3,4,10,10a-pentaaza-cyclopenta[b]fluoren-9-one]

More lines, now with the values behind:

Row | Compound | IC50 (USP5) | GI50 [1] | GI50 [2] | IC50 (USP7)
10 | CCCCc1nnc2nc3c(nn12)C(=O)c1ccccc1-3 [Example 1f/A, 1-Butyl-2,3,4,10,10a-pentaaza-cyclopenta[b]fluoren-9-one] | – | 1.36 µM | 3.8 µM | –
11 | CCCCc1nnc2nc3c(nn12)-c1ccccc1C3=O [Example 1f/B, 3-Butyl-1,2,3a,4,10-pentaaza-cyclopenta[b]fluoren-9-one] | – | 0.04 µM | 0.096 µM | –
12 | CC(C)Cc1nnc2nc3c(nn12)C(=O)c1ccccc1-3 [Example 1g/A, 1-Isobutyl-2,3,4,10,10a-pentaaza-cyclopenta[b]fluoren-9-one] | – | 3 µM | 4 µM | > 100 µM
13 | CC(C)Cc1nnc2nc3c(nn12)-c1ccccc1C3=O [Example 1g/B, 3-Isobutyl-1,2,3a,4,10-pentaaza-cyclopenta[b]fluoren-9-one] | – | 0.053 µM | 0.162 µM | –
14 | Cc1nnc2nc3c(nn12)-c1ccccc1C3=O [Example 1b/B, 3-Methyl-1,2,3a,4,10-pentaaza-cyclopenta[b]fluoren-9-one] | – | 0.084 µM | 0.334 µM | –
15 | CCCc1nnc2nc3c(nn12)-c1ccccc1C3=O [Example 1e/B, 3-Propyl-1,2,3a,4,10-pentaaza-cyclopenta[b]fluoren-9-one] | – | 0.067 µM | 0.175 µM | –
